# From PMC8325347, “Evolution of a σ–(c-di-GMP)–anti-σ switch” (Proceedings of the National Academy of Sciences of the …, 2021)
# Columns and labels:
# RsiGCw+WhiGCw = target: T1, RsiGCw+WhiGCw (Conexibacter woesei, UniProt D3EZE5); assay: fluorescence polarization; assay type: binding; conditions: 25 mM Tris-HCl pH 7.5, 150 mM NaCl, 25 °C, 1 nM probe; RsiG with WhiG; labelled compound
# T1 construct: gene Cwoe_3492; RsiG and WhiG coexpressed from pCOLADuet-1 in E. coli C41(DE3), His-tag on RsiG cut with thrombin; stoichiometry by analogy with the R. radiotolerans complex
# T1 sequence (D3EZE5 1-84): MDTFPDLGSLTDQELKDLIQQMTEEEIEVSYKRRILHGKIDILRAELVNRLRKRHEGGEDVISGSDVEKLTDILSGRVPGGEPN
# T1 sequence (UPI0011D1D740 1-268 partner): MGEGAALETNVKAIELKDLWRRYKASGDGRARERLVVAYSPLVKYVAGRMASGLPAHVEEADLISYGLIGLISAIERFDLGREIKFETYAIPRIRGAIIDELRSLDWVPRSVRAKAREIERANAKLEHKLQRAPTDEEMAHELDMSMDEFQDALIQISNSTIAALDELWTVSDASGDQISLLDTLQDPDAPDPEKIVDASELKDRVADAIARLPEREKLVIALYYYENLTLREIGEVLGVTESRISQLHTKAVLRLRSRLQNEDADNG
# RsiGRr = target: T2, RsiGRr (Rubrobacter radiotolerans, UniProt Z9BF25KB68); assay: fluorescence polarization; assay type: binding; conditions: 25 mM Tris-HCl pH 7.5, 150 mM NaCl, 25 °C, 1 nM probe; RsiG alone; labelled compound
# T2 construct: full-length single-motif RsiG, 118 residues (a 27-106 construct was made for apo crystals only); pET15b, E. coli C41(DE3), His-tag cut with thrombin; homodimer
# T2 sequence (Z9BF25KB68 1-118): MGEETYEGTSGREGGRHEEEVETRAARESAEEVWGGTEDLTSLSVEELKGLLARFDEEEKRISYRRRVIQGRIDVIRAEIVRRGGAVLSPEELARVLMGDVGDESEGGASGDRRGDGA
# [1] = target: T3, RsiGRr+WhiGRr; Rr (RsiG)2–(c-di-GMP)2–WhiG complex (Rubrobacter radiotolerans, UniProt A0A023X3C8+Z9BF25KB68); assay: fluorescence polarization; assay type: binding; conditions: 25 mM Tris-HCl pH 7.5, 150 mM NaCl, 25 °C, 1 nM probe; RsiG with WhiG; labelled compound
# T3 construct: RsiG and WhiG coexpressed from pCOLADuet-1 in E. coli C41(DE3), His-tag on RsiG cut with thrombin; complex of RsiG homodimer and one WhiG
# T3 sequence (Z9BF25KB68 1-118): T2 sequence (Z9BF25KB68 1-118)
# T3 sequence (A0A023X3C8 1-273): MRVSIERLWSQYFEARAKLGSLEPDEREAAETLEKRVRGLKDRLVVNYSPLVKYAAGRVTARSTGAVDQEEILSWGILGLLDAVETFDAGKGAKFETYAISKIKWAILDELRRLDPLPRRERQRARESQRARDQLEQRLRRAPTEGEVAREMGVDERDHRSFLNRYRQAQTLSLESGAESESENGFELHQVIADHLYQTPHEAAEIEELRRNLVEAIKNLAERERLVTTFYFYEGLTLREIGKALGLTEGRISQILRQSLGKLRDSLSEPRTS
# RsiGCw = target: T4, RsiGCw (Conexibacter woesei, UniProt D3EZE5); assay: fluorescence polarization; assay type: binding; conditions: 25 mM Tris-HCl pH 7.5, 150 mM NaCl, 25 °C, 1 nM probe; RsiG alone; labelled compound
# T4 construct: gene Cwoe_3492; full-length single-motif RsiG; pET15b, E. coli C41(DE3), His-tag cut with thrombin; homodimer (two-hybrid)
# T4 sequence (D3EZE5 1-84): T1 sequence (D3EZE5 1-84)
# [2] = target: RsiG from Rubrobacter radiotolerans (RsiGRr), co-purified with WhiGRr, His-tag cleaved (Rubrobacter radiotolerans); assay: crystal structure; Rr (RsiG)2-(c-di-GMP)2-WhiG complex, 2.93 Å; 0.1 M Tris pH 8.0, 0.2 M MgCl2, 23% PEG 3350; c-di-GMP copurified from E. coli, none added
# [3] = target: RsiGRr(27-106) (L52M-I69M), selenomethionine substituted (Rubrobacter radiotolerans); assay: crystal structure; apo RsiGRr crystal form 1; 0.1 M imidazole pH 8.0, 12% isopropyl alcohol, 0.1 M MgCl2; selenomethionine SAD, 1.86 Å; six molecules in the ASU forming three dimers
# [4] = target: RsiGRr(27-106) (Rubrobacter radiotolerans); assay: crystal structure; apo RsiGRr crystal form 2; 0.1 sodium acetate pH 4.5, 2.5 M NaCl, 0.2 M lithium sulfate, 0.1 M MgCl2; molecular replacement, 2.55 Å
substance,measurement,setting,value
2′-O-(6-[Fluoresceinyl]aminohexylcarbamoyl)-cyclic diguanosine monophosphate [2′-Fluo-AHC–c-di-GMP],Kd,RsiGCw+WhiGCw,1.7 ± 0.3 µM
same,Kd,RsiGRr,12 ± 3 µM
same,Kd,[1],0.9 ± 0.05 µM
same,Kd,RsiGCw,25 ± 2 µM
"RsiG from Rubrobacter radiotolerans (RsiGRr), co-purified with WhiGRr, His-tag cleaved (natural protein)",stoichiometry N,[2],2
"RsiGRr(27-106) (L52M-I69M), selenomethionine substituted (domain or fragment)",stoichiometry N,[3],2
RsiGRr(27-106) (domain or fragment),stoichiometry N,[4],2
